Reference: patent EP2966448B1, “METHOD FOR THE PREDICTION OR PROGNOSIS OF THE RESPONSE OF A HUMAN SUBJECT SUFFERING FROM CANCER TO TREATMENT WITH AN ANTAGONIST OF THE NK1 RECEPTOR” (priority 2013, dated 2014)
Like-named read-outs stand apart in the source and are kept apart here.

Columns and labels:
[1] = test system: human primary tumor cells; assay: Inhibition of primary tumor cell cultures vs amplification of the gene encoding the NK1 receptor (Example 6; tumor type per table line); assay type: cell-based; details: for Percentage of inhibition of cell cultures: 100 micromolar
[2] = test system: Melanoma (Nodular Melanoma); assay: Inhibition of primary tumor cell cultures vs Kras mutation (Example 2); assay type: cell-based, human; details: Homo sapiens, 100 micromolar, read-out: Percentage of inhibition of cell cultures
Procedure: (§1) Cell cultures. To obtain tumor cells from human primary tumors we used the method described in De Bari et al. (De Bari et al. 2001). Briefly, small pieces of the tumors were digested into a hyaluronidase solution (Sigma-Aldrich, USA) at a concentration of 1 mg/ml during 15 minutes at 37°C, and then they were treated with 6 mg/ml of collagenase type IV (Invitrogen) during 2 hours at 37°C. Consecutively, cells were washed, and resuspended in the DMEM culture medium with high concentration of glucose (Dulbecco's Modified Eagle's Medium, Invitrogen) supplemented with 1% of antibiotics-antimycotics (Invitrogen) and with 1% of sodium pyruvate (Invitrogen), and the cells were seeded in culture slides at a concentration of 10.000 cells per square centimeter. When cells reached confluence, the adherent cells were separated using sterile trypsin at 0,5% (Invitrogen) and they were used among passages 3 and 9. For the assays shown next, tumor cells were seeded on slides at a concentration of 25.000 cells per well. A total of 6 wells containing the tumor cells were used as survival control. […] All the cultures were kept during 48 hours and later on recollected for their analysis.
(§2) In each case the presence or not of mutations in K-ras gene was determined.
(§3) To determine the existence of mutations in the K-ras gene DNA from cancer tumor cells was extracted from samples obtained from the different cancer tumor cells, using DNA extraction kits from Takara (Madison, WI, US) or Ambion (Huntingdon, Cambridgeshire, United Kingdom), following the manufacturer's instructions, and as it has been previously published (Di Fiore F, et al. 2007). Consecutively it was analyzed by sequencing the exon 2 of the KRAS gene, , by means of PCR amplification from previously extracted cancer tumor DNA, using the following sense primer (SEQ ID NO. 15): 5'-[sequence]-3' and anti-sense primer (SEQ ID NO. 16): 5'-[sequence]-3'. After the purification using the Qiagen extraction kit, the PCR products were sequenced using the Big Dye Terminator Kit V3.1 (Applied Biosystems, Foster City, CA, U.S.) and an ABI Prism 377 or 3100 DNA sequencer (Applied Biosystems). The presence of a heterozygous mutation in the KRAS gene in cancer tumor cells of the cultures was defined as the appearance of a mutant peak of a height of at least a third of the wild type. All the sequence analysis were executed at least twice in two independent PCR.
The percentages of inhibition are expressed in percentage of variation in relation to control ± standard deviation.

Prostate carcinoma = assay: cells; details: Homo sapiens, 1 micromolar
Procedure: as §1
(§4) Immunohistochemistry techniques. The presence of NK1 receptors was also analyzed using immunohistochemistry techniques. Briefly, a sample of each of the cultures of the cell lines used in the present invention, was centrifuged (5 minutes at 1.500 rpm) and the pellet obtained was dehydrated using increasing concentrations of ethanol and, finally, xylol. Then, said dehydrated samples were embedded in paraffin, creating a block of cells. Such paraffin blocks were cut with a microtome at 5 microns thickness, and were placed on microscope slides adequate to perform immunohistochemistry techniques. Consecutively, they were de-paraffinized by immersing them in xylol, to be finally hydrated using a solution containing decreasing concentrations of ethanol, and finally submerged them into water. […] After this, the samples were left to cool down at room temperature for 10 minutes. The endogenous peroxidase activity was blocked with 3% peroxide of hydrogen for 30 minutes at room temperature. After washing the samples with 0.05 M of Tris buffer, they were incubated with 10% non-immune pork serum at for 30 minutes at room temperature. To analyze the expression of NK1 receptors, the cellular samples were incubated in the presence of anti-NK1 antibodies (S8305, Sigma-Aldrich) diluted 1:1000, overnight at 4°C. Afterwards, the samples were washed in Tris buffer 0.05 M at room temperature. The next step was the addition of Envision System-HRP (Dako) reagents for 30 minutes at room temperature. Then, the samples were washed again in Tris buffer 0.05 M and the immunoreactivity was visualized through light microscopy with a chromogenic solution containing 3,3'-Diaminobenzidine (DAB+; Dako, USA). To differentiate the cell nuclei, they were slightly stained with hematoxylin. As negative control, it was used samples not incubated with the primary antibody anti-NK1, which was replaced by non-immune serum. All the samples were evaluated.
(§5) To value the immunostaining in each of the cases six cuts were performed to be analyzed by the immunohistochemistry technique. In each of the six cuts, it was counted cells in 20 fields (magnification 400x) using an Olympus microscope (model CX31). In each field it was counted the total number of cells and the number of cells presenting immunostaining, calculating afterwards the percentage of cells which presented immunostaining.

Breast carcinoma = assay: Inhibition of primary tumor cell cultures (48 hours) vs NK1 receptor immunostaining (Example 1); assay type: cell-based; details: Homo sapiens, 1 micromolar, read-out: Percentage of inhibition of cell cultures
Procedure: as §1, §4, §5

Non Hodgkin Lymphoma B = assay: as above; assay type: cell-based; details: Homo sapiens, 1 micromolar, read-out: Percentage of inhibition of cell cultures
Procedure: as §1, §4, §5

[3] = test system: Thyroid carcinoma (folliculary type); assay: as above; assay type: cell-based; details: Homo sapiens, 1 micromolar, read-out: Percentage of inhibition of cell cultures
Procedure: as §1, §4, §5

[4] = test system: Lung carcinoma (small cell lung carcinoma); assay: Inhibition of primary tumor cell cultures vs Kras mutation (Example 2); assay type: cell-based, human; details: Homo sapiens, 100 micromolar, read-out: Percentage of inhibition of cell cultures
Procedure: To obtain tumor cells from human primary tumors we used the method described in De Bari et al. (De Bari et al. 2001). Briefly, small pieces of the tumors were digested into a hyaluronidase solution (Sigma-Aldrich, USA) at a concentration of 1 mg/ml during 15 minutes at 37°C, and then they were treated with 6 mg/ml of collagenase type IV (Invitrogen) during 2 hours at 37°C. Consecutively, cells were washed, and resuspended in the DMEM culture medium with high concentration of glucose (Dulbecco's Modified Eagle's Medium, Invitrogen) supplemented with 1% of antibiotics-antimycotics (Invitrogen) and with 1% of sodium pyruvate (Invitrogen), and the cells were seeded in culture slides at a concentration of 10.000 cells per square centimeter. When cells reached confluence, the adherent cells were separated using sterile trypsin at 0,5% (Invitrogen) and they were used among passages 3 and 9. For the assays shown next, tumor cells were seeded on slides at a concentration of 25.000 cells per well. A total of 6 wells containing the tumor cells were used as survival control. […] All the cultures were kept during 48 hours and later on recollected for their analysis.
as §2, §3
The antibody against NK1 receptor (Table 16) was used at 1/50 concentration. The percentages of inhibition are expressed in percentage of variation in relation to control ± standard deviation.

Endometrium carcinoma = assay: cells; details: Homo sapiens, 1 micromolar
Procedure: as §1, §4, §5

[5] = Cases with Kras non-mutated (wild type)
[6] = read-out: Percentage of inhibition of cell cultures, NK1 receptor immunostaining Group 1 (less than 20% of the cells)
[7] = read-out: Percentage of inhibition of cell cultures, NK1 receptor immunostaining Group 2 (20-80% of the cells)
[8] = read-out: Percentage of inhibition of cell cultures, NK1 receptor immunostaining Group 3 (more than 80% of the cells)
[9] = read-out: Percentage of inhibition of cell cultures, NK1 receptor immunostaining Intensity grade 1
[10] = read-out: Percentage of inhibition of cell cultures, NK1 receptor immunostaining Intensity grade 2
[11] = read-out: Percentage of inhibition of cell cultures, NK1 receptor immunostaining Intensity grade 3
[12] = NK1 receptor immunostaining Group 1 (less than 20% of the cells)
[13] = NK1 receptor immunostaining Group 2 (20-80% of the cells)
[14] = NK1 receptor immunostaining Group 3 (more than 80% of the cells)
[15] = NK1 receptor immunostaining Intensity grade 1
[16] = NK1 receptor immunostaining Intensity grade 2
[17] = NK1 receptor immunostaining Intensity grade 3

## CC(=O)N1CCN([C@H]2CCN(C(=O)N(C)[C@H](C)c3cc(C(F)(F)F)cc(C(F)(F)F)c3)[C@@H](c3ccc(F)cc3C)C2)CC1 [Casopitant]
[1]; Carcinoma of the uterine cervix (Squamous cell carcinoma), Cases with amplification of the gene that encodes for the NK1 receptor
  Percentage of inhibition of cell cultures: 94±6 percentage
[1]; Carcinoma of the uterine cervix (Squamous cell carcinoma), Cases without amplification of the gene that encodes for the NK1 receptor
  Percentage of inhibition of cell cultures: 23±6 percentage
[1]; Colon carcinoma (Adenocarcinoma), Cases with amplification of the gene that encodes for the NK1 receptor
  Percentage of inhibition of cell cultures: 96±4 percentage
[1]; Colon carcinoma (Adenocarcinoma), Cases without amplification of the gene that encodes for the NK1 receptor
  Percentage of inhibition of cell cultures: 24±4 percentage
[1]; Endometrium carcinoma, Cases with amplification of the gene that encodes for the NK1 receptor
  Percentage of inhibition of cell cultures: 96±5 percentage
[1]; Endometrium carcinoma, Cases without amplification of the gene that encodes for the NK1 receptor
  Percentage of inhibition of cell cultures: 24±4 percentage
[1]; Gastric carcinoma (Adenocarcinoma), Cases with amplification of the gene that encodes for the NK1 receptor
  Percentage of inhibition of cell cultures: 95±5 percentage
[1]; Gastric carcinoma (Adenocarcinoma), Cases without amplification of the gene that encodes for the NK1 receptor
  Percentage of inhibition of cell cultures: 23±5 percentage
[1]; Glioma (astrocytoma), Cases with amplification of the gene that encodes for the NK1 receptor
  Percentage of inhibition of cell cultures: 95±4 percentage
[1]; Glioma (astrocytoma), Cases without amplification of the gene that encodes for the NK1 receptor
  Percentage of inhibition of cell cultures: 24±6 percentage
[1]; Lung carcinoma (non small cell lung carcinoma), Cases with amplification of the gene that encodes for the NK1 receptor
  Percentage of inhibition of cell cultures: 96±5 percentage
[1]; Lung carcinoma (non small cell lung carcinoma), Cases without amplification of the gene that encodes for the NK1 receptor
  Percentage of inhibition of cell cultures: 26±6 percentage
[1]; Lung carcinoma (small cell lung carcinoma), Cases with amplification of the gene that encodes for the NK1 receptor
  Percentage of inhibition of cell cultures: 95±4 percentage
[1]; Lung carcinoma (small cell lung carcinoma), Cases without amplification of the gene that encodes for the NK1 receptor
  Percentage of inhibition of cell cultures: 24±4 percentage
[1]; Melanoma (Nodular Melanoma), Cases with amplification of the gene that encodes for the NK1 receptor
  Percentage of inhibition of cell cultures: 97±5 percentage
[1]; Melanoma (Nodular Melanoma), Cases without amplification of the gene that encodes for the NK1 receptor
  Percentage of inhibition of cell cultures: 26±4 percentage
[1]; Non Hodgkin Lymphoma B (diffuse B cell lymphoma), Cases with amplification of the gene that encodes for the NK1 receptor
  Percentage of inhibition of cell cultures: 95±7 percentage
[1]; Non Hodgkin Lymphoma B (diffuse B cell lymphoma), Cases without amplification of the gene that encodes for the NK1 receptor
  Percentage of inhibition of cell cultures: 27±5 percentage
[1]; Non Hodgkin Lymphoma T (diffuse T cell lymphoma), Cases with amplification of the gene that encodes for the NK1 receptor
  Percentage of inhibition of cell cultures: 95±5 percentage
[1]; Non Hodgkin Lymphoma T (diffuse T cell lymphoma), Cases without amplification of the gene that encodes for the NK1 receptor
  Percentage of inhibition of cell cultures: 28±7 percentage
[1]; Ovarian carcinoma(Adenocarcinoma), Cases with amplification of the gene that encodes for the NK1 receptor
  Percentage of inhibition of cell cultures: 95±4 percentage
[1]; Ovarian carcinoma(Adenocarcinoma), Cases without amplification of the gene that encodes for the NK1 receptor
  Percentage of inhibition of cell cultures: 24±5 percentage
[1]; Pancreatic carcinoma (Adenocarcinoma), Cases with amplification of the gene that encodes for the NK1 receptor
  Percentage of inhibition of cell cultures: 97±5 percentage
[1]; Pancreatic carcinoma (Adenocarcinoma), Cases without amplification of the gene that encodes for the NK1 receptor
  Percentage of inhibition of cell cultures: 26±6 percentage
[1]; Prostate carcinoma, Cases with amplification of the gene that encodes for the NK1 receptor
  Percentage of inhibition of cell cultures: 96±5 percentage
[1]; Prostate carcinoma, Cases without amplification of the gene that encodes for the NK1 receptor
  Percentage of inhibition of cell cultures: 27±5 percentage
[1]; Renal cell carcinoma (clear cell renal cell carcinoma), Cases with amplification of the gene that encodes for the NK1 receptor
  Percentage of inhibition of cell cultures: 93±6 percentage
[1]; Renal cell carcinoma (clear cell renal cell carcinoma), Cases without amplification of the gene that encodes for the NK1 receptor
  Percentage of inhibition of cell cultures: 27±7 percentage
[1]; Thyroid carcinoma (follicular carcinoma), Cases with amplification of the gene that encodes for the NK1 receptor
  Percentage of inhibition of cell cultures: 94±6 percentage
[1]; Thyroid carcinoma (follicular carcinoma), Cases without amplification of the gene that encodes for the NK1 receptor
  Percentage of inhibition of cell cultures: 26±5 percentage
[1]; Thyroid carcinoma (papillary carcinoma), Cases with amplification of the gene that encodes for the NK1 receptor
  Percentage of inhibition of cell cultures: 96±5 percentage
[1]; Thyroid carcinoma (papillary carcinoma), Cases without amplification of the gene that encodes for the NK1 receptor
  Percentage of inhibition of cell cultures: 24±7 percentage
[1]; Undifferentiated Pleomorphic Sarcoma (malignant fibrous histiocytoma grade 3), Cases with amplification of the gene that encodes for the NK1 receptor
  Percentage of inhibition of cell cultures: 96±6 percentage
[1]; Undifferentiated Pleomorphic Sarcoma (malignant fibrous histiocytoma grade 3), Cases without amplification of the gene that encodes for the NK1 receptor
  Percentage of inhibition of cell cultures: 25±7 percentage
[1]; Urinary bladder carcinoma (transitional cell carcinoma), Cases with amplification of the gene that encodes for the NK1 receptor
  Percentage of inhibition of cell cultures: 97±3 percentage
[1]; Urinary bladder carcinoma (transitional cell carcinoma), Cases without amplification of the gene that encodes for the NK1 receptor
  Percentage of inhibition of cell cultures: 26±4 percentage
[1]; cancer cell cultures which show amplification in the genomic region encoding the NK1 receptor, compared, non-peptidic antagonists 100 micromolar, antibody 1/50
  inhibition of cell proliferation: higher inhibition
[2]; Cases with Kras mutated
  inhibition at 100 µM: 25 ± 6%
[2]; [5]
  inhibition at 100 µM: 94 ± 6%
Prostate carcinoma; [6]
  inhibition at 1 µM: 16 ± 2%
Prostate carcinoma; [7]
  inhibition at 1 µM: 45 ± 4%
Prostate carcinoma; [8]
  inhibition at 1 µM: 93 ± 4%
Prostate carcinoma; [9]
  inhibition at 1 µM: 33 ± 5%
Prostate carcinoma; [10]
  inhibition at 1 µM: 53 ± 3%
Prostate carcinoma; [11]
  inhibition at 1 µM: 94 ± 2%
Breast carcinoma; [12]
  inhibition at 1 µM: 15 ± 3%
Breast carcinoma; [13]
  inhibition at 1 µM: 47 ± 4%
Breast carcinoma; [14]
  inhibition at 1 µM: 92 ± 3%
Breast carcinoma; [15]
  inhibition at 1 µM: 35 ± 3%
Breast carcinoma; [16]
  inhibition at 1 µM: 56 ± 6%
Breast carcinoma; [17]
  inhibition at 1 µM: 92 ± 2%
Non Hodgkin Lymphoma B; [12]
  inhibition at 1 µM: 15 ± 3%
Non Hodgkin Lymphoma B; [13]
  inhibition at 1 µM: 46 ± 5%
Non Hodgkin Lymphoma B; [14]
  inhibition at 1 µM: 94 ± 4%
Non Hodgkin Lymphoma B; [15]
  inhibition at 1 µM: 32 ± 3%
Non Hodgkin Lymphoma B; [16]
  inhibition at 1 µM: 55 ± 5%
Non Hodgkin Lymphoma B; [17]
  inhibition at 1 µM: 94 ± 4%
[3]; [12]
  inhibition at 1 µM: 14 ± 3%
[3]; [13]
  inhibition at 1 µM: 44 ± 3%
[3]; [14]
  inhibition at 1 µM: 94 ± 4%
[3]; [15]
  inhibition at 1 µM: 34 ± 3%
[3]; [16]
  inhibition at 1 µM: 54 ± 5%
[3]; [17]
  inhibition at 1 µM: 93 ± 2%
[4]; Cases with Kras mutated
  inhibition at 100 µM: 26 ± 4%
[4]; [5]
  inhibition at 100 µM: 94 ± 2%
Endometrium carcinoma; [6]
  inhibition at 1 µM: 16 ± 3%
Endometrium carcinoma; [7]
  inhibition at 1 µM: 46 ± 3%
Endometrium carcinoma; [8]
  inhibition at 1 µM: 92 ± 3%
Endometrium carcinoma; [9]
  inhibition at 1 µM: 34 ± 5%
Endometrium carcinoma; [10]
  inhibition at 1 µM: 55 ± 5%
Endometrium carcinoma; [11]
  inhibition at 1 µM: 94 ± 4%
